{"source": "paper PMC5377275", "about": "(ACS Omega, 2017)", "origin": "cited, not measured here", "tested_on": "cytosolic lysates"}
{"compound": "O=C(O)COc1ccc(Br)cc1/C=C1\\SC(=S)N(Cc2cccnc2)C1=O", "note": "[SKPin C1]", "values": [{"measurement": "Effect of inhibitor on ubiquitination of KGSYGK(FAM)RRR", "result": "impaired"}]}
{"compound": "O=C1c2ccccc2-c2nc3nonc3nc21", "note": "[SMER3]", "values": [{"measurement": "Effect of inhibitor on ubiquitination of KGSYGK(FAM)RRR", "result": "impaired"}]}
{"compound": "KGSYGK(FAM)RRR", "values": [{"measurement": "Ubiquitination of p53/MDM2-based peptide in cytosolic lysates", "result": "readily ubiquitinated"}]}
{"compound": "RRRG", "values": [{"measurement": "Ubiquitination of primary degron in HeLa cell lysates", "setting": "lysine residue positioned at the C-terminus", "result": "rapidly ubiquitinated"}]}
